Experimental data from patent US20110098177A1, “METHODS AND COMPOSITIONS OF PLANT MICRONUTRIENTS” (NOVUS INTERNATIONAL INC., priority 2006, published 2011).

How the values were obtained:
Type in all cases: in vivo
Details in all cases: in vivo
Aristotle bell pepper = system: Aristotle bell pepper
Method: (§1) The following experiments were performed in a green house during the fall of 2007 at GCREC, Balm, University of Florida. Fifteen products, at 3 different application rates were examined. The plot size was 2-gallon pots. Crop set-up, procedures and variables were as follows.
(§2) Transplants of ‘Florida-47’ tomato and ‘Aristotle’ bell pepper plants in the 4-true leaf stage (about 6 inches tall) were planted in 2-gal pots on Aug. 27, 2007. Pots were filled with a commercially available planting medium. This medium was selected based on the mineral composition of the products to be applied without providing significant nutritional inputs to the crops. Irrigation was provided with drip lines delivering between 0.50 and 0.33 gal/day/pot for tomato and bell pepper, respectively, and the crops were irrigated three times per day. No foliar pesticides were necessary.
(§3) There were four control treatments corresponding to each target micronutrient in which non-Fe, non-Mn, non-Zn or non-Cu pots received all other essential nutrients under non-limiting conditions.
(§4) Treatments were applied at three rates (high, medium and low) obtained from the estimated concentration of Zn, Fe, Cu, and Mn foliarly-applied in tomato and bell pepper in field situations (Table 1). Products were weighed and dissolved in 200 ml of deionized water with a non-ionic surfactant and applied to the newly-matured open leaves of each crop at 3 and 7 weeks after transplant (WAT). Treated pots were isolated during application to avoid cross-contamination of other treatments.
(§5) Medium nutrient concentration was determined 1 week before treatment. The mineral composition of the medium was 26.8 ppm NH4—N, 49 ppm NO3—N, 15.8 ppm P, 91.2 ppm K, 82.3 ppm Ca, 58.2 ppm Mg, 23.9 ppm Na, 125.6 ppm S, 1.33 ppm Fe, 0.39 ppm Mn, 0.35 ppm Zn, 0.05 pp, Cu, 0.04 ppm B, 0 ppm Mo, 0.73 ppm Al, and 12.1 ppm Si. The pH of the medium was 5.36 and the electric conductivity was 1.38 mS/cm. The foliar tissue analysis was performed at 6 WAT and the concentration of N, P, K, Mg, Ca, S, B, Zn, Mn, Fe, and Cu was determined by a commercial laboratory. Plant toxicity was determined at 4 WAT by using a 0-10 visual scale, where 0=no visible damage and 10=total plant death. Marketable fruit weight was collected 2 times in bell pepper and 4 times in tomato following USDA standards.
(§6) Data were analyzed using a general linear model, and means were separated using orthogonal contrasts at the 5% significance level.

Florida-47 tomato = system: Florida-47 tomato
Method: as §1, §2, §3, §4, §5, §6

Tygress tomato plants [1] = assay: Foliar nutrient concentration at 6 WAT, open-field tomato (Examples 7-10)
Method: (§7) The following experiments were performed in open-field plots during the spring of 2008 at GCREC, Balm, University of Florida. Four products delivering Zn (BIOX-Z), Mn (BIOX-M), Cu (BIOX-Cu), and Fe (BIOX-Fe) were compared to other micronutrient supplement formulations in tomato and bell pepper plants.
(§8) The plot sizes for the tomato plants were 30-ft plots (15 plants per plot) and 15-ft plots were used for the bell pepper plants (30 plants per plot). Crop set-up, procedures and variables were as follows.
(§9) Transplants of ‘Tygress’ tomato plants and ‘Patriot’ bell pepper plants in the 4-true leaf stage (about 6 inches tall) were planted in raised beds in open-field plots. The cross-section of each raised bed was 28 inches wide at the top, 32 inches wide at the base, and 8 inches tall. Irrigation and non-micronutrient fertilizer were provided daily through two drip lines per bed (0.45 gal/100 ft bed/min) at recommended rates for tomato and bell pepper production in Florida. […] The height of the plants for each of the treatment groups was measured at 3 weeks after transplantation (WAT), just prior to treatment with the experimental foliar fertilizers.
(§10) All foliar fertilizers except BIOX-CM were applied to the various treatment groups at 3 weeks after transplantation (WAT) and again at 5 WAT. The BIOX-CM treatment was applied at 4 and 5 WAT. The working water volume was 60 gal/acre and a non-ionic surfactant (Ad-Spray 80) was added in the amount of 2 pints/100 gal water. All plots were sprayed with sprayers pressurized at 25 psi and the canopies of both crops were covered with the micronutrient solutions. Treated plots were isolated during foliar fertilizer application to avoid the cross-contamination of other treatments on adjoining plots.
(§11) Leaf samples were collected from the most recent mature leaves from each plant at 6 WAT (2 weeks after initial treatment). Foliar tissue analysis was performed by a commercial laboratory to determine the concentration of N, P, K, Mg, Ca, B, Zn, Mn, Fe, and Cu. Tomato marketable fruit weights were collected at 10 and 12 WAT, and the fruits were graded according to USDA standards. Pepper marketable fruit weights were determined beginning at 5 WAT over 5 weekly harvests. Fruit mineral analysis (N, P, K, Mg, Ca, B, Zn, Mn, Fe, and Cu) was performed on samples from the tomato harvest.
(§12) The experimental design was a randomized complete block design with 5 replications for each treatment. All comparison data were analyzed using a general linear model and the means of each treatment were separated with a Fisher's protected LSD test at the 5% significance level.

[2] = system: Patriot bell pepper plants; assay: Foliar nutrient concentration at 6 WAT, open-field bell pepper (Examples 7-10)
Method: as §7, §8, §9, §10, §11, §12

Tygress tomato plants [3] = assay: Marketable yield, open-field tomato (Examples 7-10)
Method: as §7, §8, §9, §10, §11, §12

[4] = system: Patriot bell pepper plants; assay: Marketable yield, open-field bell pepper (Examples 7-10)
Method: as §7, §8, §9, §10, §11, §12

Tygress tomato plants [5] = assay: Nutrient concentration of tomato fruits at 10 WAT, open field (Examples 7-10)
Method: as §7, §8, §9, §10, §11, §12

Compound: NCC(=O)[O-].NCC(=O)[O-].[Zn+2] [BIOX-GZ, zinc glycinate]
- Pepper toxicity (Aristotle bell pepper): 0
- Tomato toxicity (Florida-47 tomato): 0
- Foliar B concentration of tomato plants (Tygress tomato plants [1]): 44 ppm
- Foliar Ca concentration of tomato plants (Tygress tomato plants [1]): 1.8%
- Foliar Cu concentration of tomato plants (Tygress tomato plants [1]): 482 ppm
- Foliar Fe concentration of tomato plants (Tygress tomato plants [1]): 94 ppm
- Foliar K concentration of tomato plants (Tygress tomato plants [1]): 5.0%
- Foliar Mg concentration of tomato plants (Tygress tomato plants [1]): 0.61%
- Foliar Mn concentration of tomato plants (Tygress tomato plants [1]): 278 ppm
- Foliar N concentration of tomato plants (Tygress tomato plants [1]): 4.6%
- Foliar P concentration of tomato plants (Tygress tomato plants [1]): 0.22%
- Foliar Zn concentration of tomato plants (Tygress tomato plants [1]): 369 b ppm
- Foliar B concentration of bell pepper plants [2]: 59 ppm
- Foliar Ca concentration of bell pepper plants [2]: 4.2%
- Foliar Cu concentration of bell pepper plants [2]: 429 ppm
- Foliar Fe concentration of bell pepper plants [2]: 118 ppm
- Foliar K concentration of bell pepper plants [2]: 3.4%
- Foliar Mg concentration of bell pepper plants [2]: 0.49%
- Foliar Mn concentration of bell pepper plants [2]: 282 ppm
- Foliar N concentration of bell pepper plants [2]: 4.4%
- Foliar P concentration of bell pepper plants [2]: 0.24%
- Foliar Zn concentration of bell pepper plants [2]: 145 a ppm
- Foliar Zn concentration of bell pepper plants compared to control, statement [2]: significantly higher foliar concentration of Zn
- Marketable yield, Tomato (Tygress tomato plants [3]): 16.8 ton/acre
- Tomato marketable yield compared to control, statement (Tygress tomato plants [3]): significantly higher than the control tomato harvest
- Marketable yield, Bell Pepper [4]: 6.3 ton/acre
- B concentration of tomato fruits (Tygress tomato plants [5]): 23 ppm
- Ca concentration of tomato fruits (Tygress tomato plants [5]): 0.2%
- Cu concentration of tomato fruits (Tygress tomato plants [5]): 23 ppm
- Fe concentration of tomato fruits (Tygress tomato plants [5]): 87 ppm
- K concentration of tomato fruits (Tygress tomato plants [5]): 7.8%
- Mg concentration of tomato fruits (Tygress tomato plants [5]): 0.37%
- Mn concentration of tomato fruits (Tygress tomato plants [5]): 43 ppm
- N concentration of tomato fruits (Tygress tomato plants [5]): 4.3%
- P concentration of tomato fruits (Tygress tomato plants [5]): 0.61%
- Zn concentration of tomato fruits (Tygress tomato plants [5]): 379 ppm

Compound: iron glycinate [BIOX-GF]
- Pepper toxicity (Aristotle bell pepper): 0
- Tomato toxicity (Florida-47 tomato): 0
- Foliar B concentration of tomato plants (Tygress tomato plants [1]): 21 ppm
- Foliar Ca concentration of tomato plants (Tygress tomato plants [1]): 0.2%
- Foliar Cu concentration of tomato plants (Tygress tomato plants [1]): 22 ppm
- Foliar Fe concentration of tomato plants (Tygress tomato plants [1]): 85 ppm
- Foliar K concentration of tomato plants (Tygress tomato plants [1]): 8.5%
- Foliar Mg concentration of tomato plants (Tygress tomato plants [1]): 0.38%
- Foliar Mn concentration of tomato plants (Tygress tomato plants [1]): 42 ppm
- Foliar N concentration of tomato plants (Tygress tomato plants [1]): 4.3%
- Foliar P concentration of tomato plants (Tygress tomato plants [1]): 0.71%
- Foliar Zn concentration of tomato plants (Tygress tomato plants [1]): 332 ppm
- Foliar nutrient concentration: B [2]: 43 ppm
- Foliar nutrient concentration: Ca [2]: 1.8%
- Foliar nutrient concentration: Cu [2]: 453 ppm
- Foliar nutrient concentration: Fe [2]: 305 ppm
- Foliar nutrient concentration: K [2]: 5.7%
- Foliar nutrient concentration: Mg [2]: 0.58%
- Foliar nutrient concentration: Mn [2]: 266 ppm
- Foliar nutrient concentration: N [2]: 5.0%
- Foliar nutrient concentration: P [2]: 0.21%
- Foliar nutrient concentration: Zn [2]: 322 ppm
- Marketable yield, Tomato (Tygress tomato plants [3]): 18.5 a ton/acre
- Tomato marketable yield compared to control, statement (Tygress tomato plants [3]): significantly higher tomato marketable yield compared to control
- Marketable yield, Bell Pepper [4]: 7.0 ton/acre
- Nutrient concentration of tomato fruits: B (Tygress tomato plants [5]): 21 ppm
- Nutrient concentration of tomato fruits: Ca (Tygress tomato plants [5]): 0.2%
- Nutrient concentration of tomato fruits: Cu (Tygress tomato plants [5]): 22 ppm
- Nutrient concentration of tomato fruits: Fe (Tygress tomato plants [5]): 85 ppm
- Nutrient concentration of tomato fruits: K (Tygress tomato plants [5]): 8.5%
- Nutrient concentration of tomato fruits: Mg (Tygress tomato plants [5]): 0.38%
- Nutrient concentration of tomato fruits: Mn (Tygress tomato plants [5]): 42 ppm
- Nutrient concentration of tomato fruits: N (Tygress tomato plants [5]): 4.3%
- Nutrient concentration of tomato fruits: P (Tygress tomato plants [5]): 0.71%
- Nutrient concentration of tomato fruits: Zn (Tygress tomato plants [5]): 332 ppm
